Laboratory results as given in the NIST ThermoML archive (doi:10.1016/j.jct.2009.11.013).
± gives the expanded uncertainty stated by the source.

Legend:
[1] = molar enthalpy of vaporization or sublimation; settings: 298.15 K; Liquid; Calvet microcalorimetry
[2] = Liquid; Calvet microcalorimetry

Row | molar enthalpy [1] | Normal boiling temperature [2] | SMILES
1 | 13.3 ± 0.621 kcal/mol | – | O=C1C=CCO1 [(5H)-furan-2-one]
2 | 13.4 ± 0.574 kcal/mol | 103 ± 0.2 °C | O=C1C=CCS1 [2(5H)-thiophenone]
